The test addresses human DGKζ (Homo sapiens (Human), UniProt Q13574). As to the kind of experiment: Human DGKζ kinase activity inhibition assay (ADP-Glo). It counts as biochemical. To be noted: in vitro human DGKζ kinase activity inhibition assay; read-out: IC50. The method, boiled down: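 Enzyme was C-terminally FLAG-tagged full-length recombinant human DGKζ from baculovirus-infected insect cells. Substrate preparation used octyl-β-D-glucopyranoside in 50 mM MOPS pH 7.4 with sonication; ADP generated was quantified by ADP-Glo luminescence as activity measure.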

Data on 29 compounds can be found in patent publication US11964953B2, “Substituted aminothiazoles as DGKzeta inhibitors for immune activation” (Bayer Aktiengesellschaft, priority 2020, dated 2024).

human DGKζ, sequence (Q13574 other isoform, or with tags, fused parts or gaps): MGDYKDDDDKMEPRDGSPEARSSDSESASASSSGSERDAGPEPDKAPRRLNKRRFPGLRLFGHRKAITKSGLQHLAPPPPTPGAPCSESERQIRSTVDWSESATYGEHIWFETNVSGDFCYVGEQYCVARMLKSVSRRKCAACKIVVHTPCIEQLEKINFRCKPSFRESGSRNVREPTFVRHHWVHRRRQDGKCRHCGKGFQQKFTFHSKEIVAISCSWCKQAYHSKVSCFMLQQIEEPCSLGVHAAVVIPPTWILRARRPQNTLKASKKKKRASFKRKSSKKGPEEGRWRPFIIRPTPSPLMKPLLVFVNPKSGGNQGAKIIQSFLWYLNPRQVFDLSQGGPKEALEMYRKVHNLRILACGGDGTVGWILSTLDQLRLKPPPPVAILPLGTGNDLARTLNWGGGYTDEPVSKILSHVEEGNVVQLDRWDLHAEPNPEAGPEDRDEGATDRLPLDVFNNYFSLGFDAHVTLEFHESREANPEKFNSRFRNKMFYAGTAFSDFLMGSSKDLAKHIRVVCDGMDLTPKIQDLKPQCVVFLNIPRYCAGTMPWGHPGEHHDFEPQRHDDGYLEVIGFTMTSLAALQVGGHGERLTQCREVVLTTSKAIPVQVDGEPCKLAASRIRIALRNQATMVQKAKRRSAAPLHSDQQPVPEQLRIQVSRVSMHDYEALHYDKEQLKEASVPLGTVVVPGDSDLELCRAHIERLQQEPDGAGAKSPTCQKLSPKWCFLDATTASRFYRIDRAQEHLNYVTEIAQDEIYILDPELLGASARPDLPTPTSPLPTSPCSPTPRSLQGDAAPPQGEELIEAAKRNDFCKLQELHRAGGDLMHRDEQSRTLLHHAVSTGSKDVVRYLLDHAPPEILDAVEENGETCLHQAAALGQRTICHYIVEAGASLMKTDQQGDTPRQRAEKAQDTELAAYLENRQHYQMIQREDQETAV

Regarding `CC(C(N)=O)N(c1nc(N)c(C(=O)c2ccccc2)s1)c1ccc(OC(F)F)cc1F` (racemic) [Example 241, rac-2-[N-(4-amino-5-benzoyl-thiazol-2-yl)-4-(difluoromethoxy)-2-fluoro-anilino]propanamide], the IC50 came to 382 nM. For `CC(C(N)=O)N(c1nc(N)c(C(=O)c2ccccc2)s1)c1ccc(OC(F)F)cc1Cl` (racemic) [Example 242, rac-2-[N-(4-amino-5-benzoyl-thiazol-2-yl)-2-chloro-4-(difluoromethoxy)anilino]propanamide], the concentration for half-maximal inhibition (IC50) was found to be 2030 nM. As to `COc1ccc(C(=O)c2sc(N(c3ccc(C(F)F)cc3)C(C)C(N)=O)nc2N)cc1` (racemic) [Example 243, rac-2-[N-[4-amino-5-(4-methoxybenzoyl)thiazol-2-yl]-4-(difluoromethyl)anilino]propanamide], the IC50 stood at 51 nM. To `CC(C(N)=O)N(c1ccc(C(F)F)cc1)c1nc(N)c(C(=O)c2ccc(Cl)cc2)s1` (racemic) [Example 244, rac-2-[N-[4-amino-5-(4-chlorobenzoyl)thiazol-2-yl]-4-(difiuoromethyl)anilino]propanamide] belongs 30 nM. To `CC(C(N)=O)N(c1ccc(C(F)F)cc1)c1nc(N)c(C(=O)c2ccc(OC(F)F)cc2)s1` (racemic) [Example 245, rac-2-[N-[4-amino-5-[4-(difluoromethoxy)benzoyl]thiazol-2-yl]-4-(difluoromethyl)anilino]propanamide] belongs 22 nM. To `CC(C(N)=O)N(c1ccc(C(F)F)cc1)c1nc(N)c(C(=O)c2ccncc2)s1` (racemic) [Example 246, rac-2-[N-[4-amino-5-(pyridine-4-carbonyl)thiazol-2-yl]-4-(difluoromethyl)anilino]propanamide] belongs 662 nM.

Consider `CC(C(N)=O)N(c1ccc(C(F)F)cc1)c1nc(N)c(C(=O)c2ccc(OC(F)F)nc2)s1` (racemic) [Example 247, rac-2-[N-[4-amino-5-[6-(difluoromethoxy)pyridine-3-carbonyl]thiazol-2-yl]-4-(difluoromethyl)anilino]propanamide], for which the half-maximal inhibitory concentration (IC50) is 40 nM. To `COc1ccc(C(=O)c2sc(N(c3ccc(OC(F)(F)F)nc3)C(C)C(N)=O)nc2N)cc1` (racemic) [Example 248, rac-2-[[4-amino-5-(4-methoxybenzoyl)thiazol-2-yl]-[6-(trifluoromethoxy)-3-pyridyl]amino]propanamide] belongs 136 nM; to `CC(C(N)=O)N(c1ccc(OC(F)(F)F)nc1)c1nc(N)c(C(=O)c2ccc(Cl)cc2)s1` (racemic) [Example 249, rac-2-[[4-amino-5-(4-chlorobenzoyl)thiazol-2-yl]-[6-(trifluoromethoxy)-3-pyridyl]amino]propanamide], 120 nM. The figure for `CC(C(N)=O)N(c1ccc(OC(F)(F)F)nc1)c1nc(N)c(C(=O)c2ccc(OC(F)F)cc2)s1` (racemic) [Example 250, rac-2-[[4-amino-5-[4-(difluoromethoxy)benzoyl]thiazol-2-yl]-[6-(trifluoromethoxy)-3-pyridyl]amino]propanamide] is 36 nM; for `CC(C(N)=O)N(c1ccc(OC(F)(F)F)nc1)c1nc(N)c(C(=O)c2ccc(OC(F)F)nc2)s1` (racemic) [Example 251, rac-2-[[4-amino-5-[6-(difluoromethoxy)pyridine-3-carbonyl]thiazol-2-yl]-[6-(trifluoromethoxy)-3-pyridyl]amino]propanamide] it is 87 nM; for `COc1ccc(C(=O)c2sc(N(c3ccc(OC(F)F)nc3)C(C)C(N)=O)nc2N)cc1` (racemic) [Example 252, rac-2-[[4-amino-5-(4-methoxybenzoyl)thiazol-2-yl]-[6-(difluoromethoxy)-3-pyridyl]amino]propanamide] it is 106 nM. To `CC(C(N)=O)N(c1ccc(OC(F)F)nc1)c1nc(N)c(C(=O)c2ccc(Cl)cc2)s1` (racemic) [Example 253, rac-2-[[4-amino-5-(4-chlorobenzoyl)thiazol-2-yl]-[6-(difluoromethoxy)-3-pyridyl]amino]propanamide] belongs 59 nM; to `CC(C(N)=O)N(c1ccc(OC(F)F)nc1)c1nc(N)c(C(=O)c2ccc(OC(F)F)cc2)s1` (racemic) [Example 254, rac-2-[[4-amino-5-[4-(difluoromethoxy)benzoyl]thiazol-2-yl]-[6-(difluoromethoxy)-3-pyridyl]amino]propanamide], 32 nM; to `CC(C(N)=O)N(c1ccc(OC(F)F)nc1)c1nc(N)c(C(=O)c2ccc(OC(F)F)nc2)s1` (racemic) [Example 255, rac-2-[[4-amino-5-[6-(difluoromethoxy)pyridine-3-carbonyl]thiazol-2-yl]-[6-(difluoromethoxy)-3-pyridyl]amino]propanamide], 76 nM.

Consider `CC(C(N)=O)N(c1ccc(F)cc1)c1nc(N)c(C(=O)c2ccc(NC(=O)OCc3ccccc3)nc2)s1` (racemic) [Example 256, rac-benzyl N-[5-[4-amino-2-(N-(2-amino-1-methyl-2-oxo-ethyl)-4-fluoro-anilino)thiazole-5-carbonyl]-2-pyridyl]carbamate], for which the IC50 stood at 9 nM.

On to `CCOC(=O)c1ccc(C(=O)c2sc(N(c3ccc(Cl)c(F)c3)C(C)C(N)=O)nc2N)cc1` (racemic) [Example 258, rac-Ethyl 4-[4-amino-2-(N-(2-amino-1-methyl-2-oxo-ethyl)-4-chloro-3-fluoro-anilino)thiazole-5-carbonyl]benzoate], for which the IC50 is 19 nM. The figure for `CCOC(=O)C(C)(C)Oc1ccc(C(=O)c2sc(N(c3ccc(F)cc3)C(C)C(N)=O)nc2N)cc1` (racemic) [Example 259, Rac-Ethyl 2-[4-[4-amino-2-(N-(2-amino-1-methyl-2-oxo-ethyl)-4-fluoro-anilino)thiazole-5-carbonyl]phenoxy]-2-methyl-propanoate] is 19 nM; for `CC(C(N)=O)N(c1ccc(F)cc1)c1nc(N)c(C(=O)c2ccc(C(=O)NC3CCCCC3)cc2)s1` (racemic) [Example 260, rac-4-[4-amino-2-(N-(2-amino-1-methyl-2-oxo-ethyl)-4-fluoro-anilino)thiazole-5-carbonyl]-N-cyclohexyl-benzamide] it is 29 nM; for `CC(C)NC(=O)c1ccc(C(=O)c2sc(N(c3ccc(F)cc3)C(C)C(N)=O)nc2N)cc1` (racemic) [Example 261, rac-4-[4-amino-2-(N-(2-amino-1-methyl-2-oxo-ethyl)-4-fluoro-anilino)thiazole-5-carbonyl]-N-isopropyl-benzamide] it is 90 nM. The figure for `CC(C(N)=O)N(c1ccc(F)cc1)c1nc(N)c(C(=O)c2ccc(C(=O)NCc3ccccc3)cc2)s1` (racemic) [Example 262, rac-4-[4-amino-2-(N-(2-amino-1-methyl-2-oxo-ethyl)-4-fluoro-anilino)thiazole-5-carbonyl]-N-benzyl-benzamide] is 6 nM. To `COCCNC(=O)c1ccc(C(=O)c2sc(N(c3ccc(F)cc3)C(C)C(N)=O)nc2N)cc1` (racemic) [Example 264, rac-4-[4-amino-2-(N-(2-amino-1-methyl-2-oxo-ethyl)-4-fluoro-anilino)thiazole-5-carbonyl]-N-(2-methoxyethyl)benzamide] belongs 376 nM.

`CC(C(N)=O)N(c1ccc(F)cc1)c1nc(N)c(C(=O)c2ccc(C(=O)NC3CC3)cc2)s1` (racemic) [Example 266, rac-4-[4-amino-2-(N-(2-amino-1-methyl-2-oxo-ethyl)-4-fluoro-anilino)thiazole-5-carbonyl]-N-cyclopropyl-benzamide]: the IC50 is 287 nM. To `CC(C(N)=O)N(c1ccc(F)cc1)c1nc(N)c(C(=O)c2ccc(C(=O)NC3CCCC3)cc2)s1` (racemic) [Example 267, rac-4-[4-amino-2-(N-(2-amino-1-methyl-2-oxo-ethyl)-4-fluoro-anilino)thiazole-5-carbonyl]-N-cyclopentyi-benzamide] belongs 63 nM; to `CC(C(N)=O)N(c1ccc(Cl)c(F)c1)c1nc(N)c(C(=O)c2ccc(C(=O)NCCOc3ccccc3)cc2)s1` (racemic) [Example 268, rac-4-[4-amino-2-(N-(2-amino-1-methyl-2-oxo-ethyl)-4-chloro-3-fluoro-anilino)thiazole-5-carbonyl]-N-(2-phenoxyethyl)benzamide], 3 nM; to `CC(C(N)=O)N(c1ccc(Cl)c(F)c1)c1nc(N)c(C(=O)c2ccc(C(=O)NCCOC(F)(F)F)cc2)s1` (racemic) [Example 269, rac-4-[4-amino-2-(N-(2-amino-1-methyl-2-oxo-ethyl)-4-chloro-3-fluoro-anilino)thiazole-5-carbonyl]-N-[2-(trifluoromethoxy)ethyl]benzamide], 12 nM.

For the compound `CC(C(N)=O)N(c1ccc(Cl)c(F)c1)c1nc(N)c(C(=O)c2ccc(C(=O)NCCOC(F)F)cc2)s1` (racemic) [Example 270, rac-4-[4-amino-2-(N-(2-amino-1-methyl-2-oxo-ethyl)-4-chloro-3-fluoro-anilino)thiazole-5-carbonyl]-N-2-(difluoromethoxy)ethyl]benzamide], the IC50 was 13 nM.

In the case of `CC(C(N)=O)N(c1ccc(Cl)c(F)c1)c1nc(N)c(C(=O)c2ccc(C(=O)NCCOC(C)(C)C)cc2)s1` (racemic) [Example 271, rac-4-[4-amino-2-(N-(2-amino-1-methyl-2-oxo-ethyl)-4-chloro-3-fluoro-anilino)thiazole-5-carbonyl]-N-(2-tert-butoxyethyl)benzamide], the IC50 came out at 18 nM. The figure for `COCCNC(=O)c1ccc(C(=O)c2sc(N(c3ccc(Cl)c(F)c3)C(C)C(N)=O)nc2N)cc1` (racemic) [Example 272, rac-4-[4-amino-2-(N-(2-amino-1-methyl-2-oxo-ethyl)-4-chloro-3-fluoro-anilino)thiazole-5-carbonyl]-N-(2-methoxyethyl)benzamide] is 39 nM.
